The source of these data is patent publication US9464082B2, “Aryl and arylalkyl substituted pyrazolyl and pyrimidinyl tricyclic enones as antioxidant inflammation modulators” (AbbVie Inc., priority 2014, dated 2016).

The subject of the experiment is IFNγ-Induced NO Production. Description: Nitric Oxide Suppression Assay (Suppression of IFNγ-Induced NO Production). The class given is cell-based. To be noted: RAW264.7; RAW 264.7 mouse macrophage cells; 2 hour pre-treatment with compound (3 μM to 0.3 nM, 10 point curve); 20 ng/mL interferon gamma, ~18 hour; Griess detection; n=2-3 in duplicates. Here is the method:
RAW 264.7, a mouse macrophage cell line, was obtained from American Type Culture Collection (Manassas Va.) and maintained in the log phase of growth in Dulbecco's Modified Eagle's Medium (DMEM), 10% heat inactivated fetal calf serum and 100 units/mL antibiotic-antimycotic (AA). Cells were cultured and maintained in a humidified incubator at 37° C. under 5% CO2 and 95% air. Cells were sub-cultured every 3 days by scraping and were not used beyond passage 20. All cell culture supplies were obtained from Life Technologies (Grand Island, N.Y.).
RAW 264.7 cells were plated 1 day in advance of experiment at a concentration of 80,000 cells/well onto CellBIND® 96 well plates (Corning, N.Y.) in a total volume of 100 μL. The next day, pre-treat cells with compounds (from 3 μM to 0.3 nM serially diluted in a 10 point curve) from a 10× stock by adding 10 μL per well in complete DMEM media containing 10% fetal calf serum. The plates were centrifuged for 3 minutes at 400×g at room temperature followed by 2 hour incubation at 37° C. The cells were then incubated overnight at 37° C. with 10 μL of the insult, interferon gamma (R&D Systems, Minneapolis, Minn.), from a 10× stock for a final concentration of 20 ng/mL. The plates were centrifuged for 3 minutes at 400×g at room temperature followed by ˜18 hour incubation at 37° C. The following day, transfer 50 μL cell culture supernatant from each well into a clear bottom 96 well plate and follow the instructions from Promega's Griess Detection Kit #G2930 (Madison, Wis.) which involves the addition of 50 μL of the provided sulfanilamide solution for a 5-10 minute incubation at room temperature. Next add 50 μL of the provided N-1-napthylethylenediamine dihydrochloride (NED) solution for a 5-10 minute incubation at room temperature and protected from light. If any air bubbles were introduced into the well, the plates need to be centrifuged for 5 minutes at 400×g at room temperature to avoid interference with absorbance readings. The plates were read for absorbance within 30 minutes with a filter between 520 nm and 550 nm.
For the ability of compounds to suppress the increase in nitric oxide release, the percent maximal intensity of nitric oxide detected in each well was normalized to that induced by the peak value for 20 ng/mL of interferon gamma alone and plotted against the compound concentration to calculate IC50 values and to control for plate-to-plate variability. Concentration-response data were analyzed using GraphPad Prism (San Diego, Calif.); the IC50 values were derived from a single curve fit to the mean data of n=2-3, in duplicates.
All compounds were dissolved in dimethyl sulfoxide at 10 mM stock solutions and tested at a concentration that the dimethyl sulfoxide levels never exceeded 1%.
(In general: Nitrite, measured by Griess reagent, commonly stands in for NO production.)
In general, IC50 refers to the concentration needed to halve the response being measured. Consider `C[C@@H]1C(=O)C(C#N)=C[C@]2(c3ccccc3)c3nc(Nc4ccccc4)nc(-c4cncnc4)c3CC[C@@H]12` [Example 16, (6aS,7S,10aR)-2-anilino-7-methyl-8-oxo-10a-phenyl-4-(pyrimidin-5-yl)-5,6,6a,7,8,10a-hexahydrobenzo[h]quinazoline-9-carbonitrile], for which the IC50 was 7.8 nM.

In the case of `C[C@@H]1C(=O)C(C#N)=C[C@]2(c3ccccc3)c3nn(C)c(-c4ccc(-c5ccncc5)cc4)c3CC[C@@H]12` [Example 143, (5aS,6S,9aR)-2,6-dimethyl-7-oxo-9a-phenyl-3-[4-(pyridin-4-yl)phenyl]-4,5,5a,6,7,9a-hexahydro-2H-benzo[g]indazole-8-carbonitrile], the IC50 was 69.3 nM.

On to `CC(=O)n1cc(-c2nc(C)nc3c2CC[C@H]2[C@H](C)C(=O)C(C#N)=C[C@]32c2ccccc2)cn1` [Example 76, (6aS,7S,10aR)-4-(1-acetyl-1H-pyrazol-4-yl)-2,7-dimethyl-8-oxo-10a-phenyl-5,6,6a,7,8,10a-hexahydrobenzo[h]quinazoline-9-carbonitrile], for which the concentration for half-maximal inhibition (IC50) was determined as 1.91 nM.

With `COC(=O)n1cc2c(n1)[C@@]1(c3ccccc3)C=C(C#N)C(=O)[C@@H](C)[C@@H]1CC2` [Example 32, methyl (5aS,6S,9aR)-8-cyano-6-methyl-7-oxo-9a-phenyl-4,5,5a,6,7,9a-hexahydro-2H-benzo[g]indazole-2-carboxylate], the IC50 stood at 25.9 nM.

Take `C[C@@H]1C(=O)C(C#N)=C[C@]2(c3ccccc3)c3n[nH]cc3CC[C@@H]12` [Example 24, (5aS,6S,9aR)-6-methyl-7-oxo-9a-phenyl-4,5,5a,6,7,9a-hexahydro-2H-benzo[g]indazole-8-carbonitrile]: the IC50 came to 67.7 nM.

With `Cc1nc(-c2cncnc2)c2c(n1)[C@@]1(c3ccccc3)C=C(C#N)C(=O)[C@@H](C)[C@@H]1CC2` [Example 22, (6aS,7S,10aR)-2,7-dimethyl-8-oxo-10a-phenyl-4-(pyrimidin-5-yl)-5,6,6a,7,8,10a-hexahydrobenzo[h]quinazoline-9-carbonitrile], the IC50 turned out to be 31.8 nM.

Take `C[C@@H]1C(=O)C(C#N)=C[C@]2(c3ccccc3)c3n[nH]c(-c4cnn(C)c4)c3CC[C@@H]12` [Example 89, (5aS,6S,9aR)-6-methyl-3-(1-methyl-1H-pyrazol-4-yl)-7-oxo-9a-phenyl-4,5,5a,6,7,9a-hexahydro-2H-benzo[g]indazole-8-carbonitrile]: the IC50 was determined as 8.18 nM.

`C[C@@H]1C(=O)C(C#N)=C[C@]2(c3ccccc3)c3n[nH]c(-c4cccc(CCO)c4)c3CC[C@@H]12` [Example 116, (5aS,6S,9aR)-3-[3-(2-hydroxyethyl)phenyl]-6-methyl-7-oxo-9a-phenyl-4,5,5a,6,7,9a-hexahydro-2H-benzo[g]indazole-8-carbonitrile]: the IC50 came out at 9.25 nM.

`COC(=O)c1ccc([C@]23C=C(C#N)C(=O)[C@@H](C)[C@@H]2CCc2c[nH]nc23)cc1` [Example 63, methyl 4-[(5aS,6S,9aR)-8-cyano-6-methyl-7-oxo-2,4,5,5a,6,7-hexahydro-9aH-benzo[g]indazol-9a-yl]benzoate]: the IC50 was found to be 26.6 nM.

On to `C[C@@H]1C(=O)C(C#N)=C[C@]2(c3ccccc3)c3nc(-c4ccncc4)ncc3CC[C@@H]12` [Example 29, (6aS,7S,10aR)-7-methyl-8-oxo-10a-phenyl-2-(pyridin-4-yl)-5,6,6a,7,8,10a-hexahydrobenzo[h]quinazoline-9-carbonitrile], for which the IC50 was found to be 6.36 nM.

Turning to `C[C@@H]1C(=O)C(C#N)=C[C@]2(c3ccc(F)cc3)c3n[nH]cc3CC[C@@H]12` [Example 54, (5aS,6S,9aR)-9a-(4-fluorophenyl)-6-methyl-7-oxo-4,5,5a,6,7,9a-hexahydro-2H-benzo[g]indazole-8-carbonitrile], the 50% inhibitory concentration (IC50) came out at 35.5 nM.

Consider `C[C@@H]1C(=O)C(C#N)=C[C@]2(c3ccccc3)c3nn(C)c(-c4cccc(-c5ccc(CNS(C)(=O)=O)cc5)c4)c3CC[C@@H]12` [Example 168, N-({3′-[(5aS,6S,9aR)-8-cyano-2,6-dimethyl-7-oxo-9a-phenyl-4,5,5a,6,7,9a-hexahydro-2H-benzo[g]indazol-3-yl]biphenyl-4-yl}methyl)methanesulfonamide], for which the IC50 was determined as 12.3 nM.

As for `COc1nc(Nc2ccccc2)nc2c1CC[C@H]1[C@H](C)C(=O)C(C#N)=C[C@]21c1ccccc1` [Example 14, (6aS,7S,10aR)-2-anilino-4-methoxy-7-methyl-8-oxo-10a-phenyl-5,6,6a,7,8,10a-hexahydrobenzo[h]quinazoline-9-carbonitrile], the IC50 was 11.4 nM.

With `C[C@@H]1C(=O)C(C#N)=C[C@]2(c3ccccc3)c3nn(C)c(-c4ccc(-c5cncnc5)cc4)c3CC[C@@H]12` [Example 144, (5aS,6S,9aR)-2,6-dimethyl-7-oxo-9a-phenyl-3-[4-(pyrimidin-5-yl)phenyl]-4,5,5a,6,7,9a-hexahydro-2H-benzo[g]indazole-8-carbonitrile], the IC50 amounted to 18.1 nM.

Take `COc1nc(-c2ccccc2F)nc2c1CC[C@H]1[C@H](C)C(=O)C(C#N)=C[C@]21c1ccccc1` [Example 25, (6aS,7S,10aR)-2-(2-fluorophenyl)-4-methoxy-7-methyl-8-oxo-10a-phenyl-5,6,6a,7,8,10a-hexahydrobenzo[h]quinazoline-9-carbonitrile]: the IC50 was determined as 37.8 nM.

On to `COC(=O)c1cccc([C@]23C=C(C#N)C(=O)[C@@H](C)[C@@H]2CCc2cncnc23)c1` [Example 59, methyl 3-[(6aS,7S,10aR)-9-cyano-7-methyl-8-oxo-6,6a,7,8-tetrahydrobenzo[h]quinazolin-10a(5H)-yl]benzoate], for which the IC50 was found to be 6.53 nM.

With `C[C@@H]1C(=O)C(C#N)=C[C@]2(c3ccc(F)cc3)c3nn(C(=O)CN)cc3CC[C@@H]12` [Example 82, (5aS,6S,9aR)-9a-(4-fluorophenyl)-2-glycyl-6-methyl-7-oxo-4,5,5a,6,7,9a-hexahydro-2H-benzo[g]indazole-8-carbonitrile], the IC50 was determined as 31.3 nM.

As for `C[C@@H]1C(=O)C(C#N)=C[C@]2(c3ccccc3)c3nn(C(=O)CNC(=O)OC(C)(C)C)cc3CC[C@@H]12` [Example 39, tert-butyl {2-[(5aS,6S,9aR)-8-cyano-6-methyl-7-oxo-9a-phenyl-4,5,5a,6,7,9a-hexahydro-2H-benzo[g]indazol-2-yl]-2-oxoethyl}carbamate], the IC50 was found to be 53.6 nM.

As to `Cc1nc(-c2ccc(-c3ccncc3)cc2)c2c(n1)[C@@]1(c3ccccc3)C=C(C#N)C(=O)[C@@H](C)[C@@H]1CC2` [Example 122, (6aS,7S,10aR)-2,7-dimethyl-8-oxo-10a-phenyl-4-[4-(pyridin-4-yl)phenyl]-5,6,6a,7,8,10a-hexahydrobenzo[h]quinazoline-9-carbonitrile], the 50% inhibitory concentration (IC50) is 12.7 nM.

As to `C[C@@H]1C(=O)C(C#N)=C[C@]2(c3ccccc3)c3nn(C)c(-c4cccc(-c5cccc(C(=O)O)c5)c4)c3CC[C@@H]12` [Example 166, 3′-[(5aS,6S,9aR)-8-cyano-2,6-dimethyl-7-oxo-9a-phenyl-4,5,5a,6,7,9a-hexahydro-2H-benzo[g]indazol-3-yl]biphenyl-3-carboxylic acid], the 50% inhibitory concentration (IC50) was determined as 65.6 nM.

On to `C[C@@H]1C(=O)C(C#N)=C[C@]2(c3cccc(OCc4ccccc4)c3)c3ncncc3CC[C@@H]12` [Example 128, (6aS,7S,10aR)-10a-[3-(benzyloxy)phenyl]-7-methyl-8-oxo-5,6,6a,7,8,10a-hexahydrobenzo[h]quinazoline-9-carbonitrile], for which the half-maximal inhibitory concentration (IC50) was 7.82 nM.

For `C[C@@H]1C(=O)C(C#N)=C[C@]2(c3cccc(O)c3)c3ncncc3CC[C@@H]12` [Example 137, (6aS,7S,10aR)-10a-(3-hydroxyphenyl)-7-methyl-8-oxo-5,6,6a,7,8,10a-hexahydrobenzo[h]quinazoline-9-carbonitrile], the IC50 was determined as 8.93 nM.

Turning to `C[C@@H]1C(=O)C(C#N)=C[C@]2(c3ccccc3)c3n[nH]c(-c4ccc(CCO)cc4)c3CC[C@@H]12` [Example 115, (5aS,6S,9aR)-3-[4-(2-hydroxyethyl)phenyl]-6-methyl-7-oxo-9a-phenyl-4,5,5a,6,7,9a-hexahydro-2H-benzo[g]indazole-8-carbonitrile], the IC50 turned out to be 23.6 nM.

For `C[C@@H]1C(=O)C(C#N)=C[C@]2(c3ccccc3)c3nc(-c4cccnc4)ncc3CC[C@@H]12` [Example 11, (6aS,7S,10aR)-7-methyl-8-oxo-10a-phenyl-2-(pyridin-3-yl)-5,6,6a,7,8,10a-hexahydrobenzo[h]quinazoline-9-carbonitrile], the concentration for half-maximal inhibition (IC50) amounted to 6.03 nM.
